Hepatotoxicity data for 33 molecules are collected here from ChEMBL document CHEMBL1697731, “Cheminformatics analysis of assertions mined from literature that describe drug-induced liver injury in different species” (Chem Res Toxicol, 2010).

Data set [1] has as its system Hepatotoxicity. Nature of the data set: Literature-mined compound from Fourches et al multi-species drug-induced liver injury (DILI) dataset, effect in humans. The note with it: human.
Data set [2] concerns Hepatotoxicity. Nature of the data set: Literature-mined compound from Fourches et al multi-species drug-induced liver injury (DILI) dataset, effect in rodents. The note with it: rodentia.
In data set [3] the test system is Hepatotoxicity. The experiment in a line: Literature-mined compound from Fourches et al multi-species drug-induced liver injury (DILI) dataset, effect in non-rodents.

`CC(C)OC(=O)C(C)(C)Oc1ccc(C(=O)c2ccc(Cl)cc2)cc1` [FENOFIBRATE]: the Hepatotoxicity entry is recorded as “drug-induced liver injury reported” in the data set on Hepatotoxicity [1], “drug-induced liver injury reported” in the data set on Hepatotoxicity [2] and “no drug-induced liver injury reported” in the data set with Hepatotoxicity [3].

On to `CC1=C(/C=C/C(C)=C/C=C/C(C)=C/C(=O)Nc2ccc(O)cc2)C(C)(C)CCC1` [FENRETINIDE], for which the Hepatotoxicity result with Hepatotoxicity [1] is “drug-induced liver injury reported”; in the data set on Hepatotoxicity [2], “drug-induced liver injury reported”; with Hepatotoxicity [3], “no drug-induced liver injury reported”.

For the molecule `CCCCCCCCc1ccc(CCC(N)(CO)CO)cc1` [FINGOLIMOD], the Hepatotoxicity entry is recorded as “drug-induced liver injury reported” in the data set on Hepatotoxicity [1], “drug-induced liver injury reported” in the data set on Hepatotoxicity [2] and “no drug-induced liver injury reported” with Hepatotoxicity [3].

With `O=C(NCC1CCCCN1)c1cc(OCC(F)(F)F)ccc1OCC(F)(F)F` (centres undefined) [FLECAINIDE], the Hepatotoxicity entry is reported as “drug-induced liver injury reported” with Hepatotoxicity [1], “no drug-induced liver injury reported” in the data set on Hepatotoxicity [2] and “no drug-induced liver injury reported” in the data set on Hepatotoxicity [3].

Regarding `Cn1cc([S+](C)[O-])c(=O)c2ccc(F)cc21` (centres undefined) [FLOSEQUINAN], the Hepatotoxicity entry with Hepatotoxicity [1] was “drug-induced liver injury reported”; in the data set with Hepatotoxicity [2] it was “no drug-induced liver injury reported”; in the data set on Hepatotoxicity [3] it was “no drug-induced liver injury reported”.

Take `Cc1onc(-c2c(F)cccc2Cl)c1C(=O)N[C@@H]1C(=O)N2[C@@H]1SC(C)(C)[C@@H]2C(=O)O` [FLOXACILLIN]: the Hepatotoxicity result in the data set on Hepatotoxicity [1] was “drug-induced liver injury reported”; with Hepatotoxicity [2], “drug-induced liver injury reported”; in the data set on Hepatotoxicity [3], “no drug-induced liver injury reported”.

As to `O=c1[nH]c(=O)n([C@H]2C[C@H](O)[C@@H](CO)O2)cc1F` [FLOXURIDINE], the figures for the Hepatotoxicity result with Hepatotoxicity [1], in the data set with Hepatotoxicity [2] and with Hepatotoxicity [3] were “drug-induced liver injury reported”, “drug-induced liver injury reported” and “no drug-induced liver injury reported”, respectively.

For the molecule `OC(Cn1cncn1)(Cn1cncn1)c1ccc(F)cc1F` [FLUCONAZOLE], the Hepatotoxicity entry in the data set with Hepatotoxicity [1] (Liver) is recorded as “drug-induced liver injury reported”; with Hepatotoxicity [2] (Liver), “drug-induced liver injury reported”; with Hepatotoxicity [3] (Liver), “no drug-induced liver injury reported”.

`Nc1nc(=O)[nH]cc1F` [FLUCYTOSINE]: the Hepatotoxicity result with Hepatotoxicity [1] is reported as “no drug-induced liver injury reported”; in the data set with Hepatotoxicity [2], “drug-induced liver injury reported”; in the data set with Hepatotoxicity [3] it was “no drug-induced liver injury reported”.

Turning to `O=C(O)c1ccccc1Nc1cccc(C(F)(F)F)c1` [FLUFENAMIC ACID], the figures for the Hepatotoxicity result in the data set on Hepatotoxicity [1], with Hepatotoxicity [2] and in the data set on Hepatotoxicity [3] were “drug-induced liver injury reported”, “drug-induced liver injury reported” and “no drug-induced liver injury reported”, respectively.

`CCOC(=O)c1ncn2c1CN(C)C(=O)c1cc(F)ccc1-2` [FLUMAZENIL]: the Hepatotoxicity entry in the data set with Hepatotoxicity [1] is “drug-induced liver injury reported”; in the data set with Hepatotoxicity [2], “no drug-induced liver injury reported”; with Hepatotoxicity [3], “no drug-induced liver injury reported”.

Consider `CN1C(=O)CN=C(c2ccccc2F)c2cc([N+](=O)[O-])ccc21` [FLUNITRAZEPAM], for which the results for the Hepatotoxicity result in the data set on Hepatotoxicity [1], with Hepatotoxicity [2] and in the data set with Hepatotoxicity [3] were “no drug-induced liver injury reported”, “no drug-induced liver injury reported” and “drug-induced liver injury reported”, respectively.

With `O=c1[nH]cc(F)c(=O)[nH]1` [FLUOROURACIL], the Hepatotoxicity result with Hepatotoxicity [1], in the data set with Hepatotoxicity [2] and in the data set with Hepatotoxicity [3] was “drug-induced liver injury reported” each time.

For the molecule `CC(C(=O)O)c1ccc(-c2ccccc2)c(F)c1` (centres undefined) [FLURBIPROFEN], the Hepatotoxicity entry in the data set with Hepatotoxicity [1] was “no drug-induced liver injury reported”; with Hepatotoxicity [2], “drug-induced liver injury reported”; in the data set on Hepatotoxicity [3], “drug-induced liver injury reported”.

On to `CC(C)C(=O)Nc1ccc([N+](=O)[O-])c(C(F)(F)F)c1` [FLUTAMIDE], for which the Hepatotoxicity result in the data set on Hepatotoxicity [1] is recorded as “drug-induced liver injury reported”; in the data set on Hepatotoxicity [2], “drug-induced liver injury reported”; with Hepatotoxicity [3], “no drug-induced liver injury reported”.

Regarding `CC(C)n1c(/C=C/C(O)CC(O)CC(=O)O)c(-c2ccc(F)cc2)c2ccccc21` (centres undefined) [FLUVASTATIN], the Hepatotoxicity result with Hepatotoxicity [1] (Liver) is reported as “drug-induced liver injury reported”; with Hepatotoxicity [2] (Liver), “drug-induced liver injury reported”; in the data set with Hepatotoxicity [3] (Liver), “no drug-induced liver injury reported”.

Consider `COCCCC/C(=N\OCCN)c1ccc(C(F)(F)F)cc1` [FLUVOXAMINE], for which the values for the Hepatotoxicity entry in the data set on Hepatotoxicity [1], in the data set with Hepatotoxicity [2] and in the data set on Hepatotoxicity [3] were “drug-induced liver injury reported”, “drug-induced liver injury reported” and “no drug-induced liver injury reported”, respectively.

As to `Nc1nc2ncc(CNc3ccc(C(=O)N[C@@H](CCC(=O)O)C(=O)O)cc3)nc2c(=O)[nH]1` [FOLIC ACID], the figures for the Hepatotoxicity entry in the data set with Hepatotoxicity [1], with Hepatotoxicity [2] and in the data set with Hepatotoxicity [3] were “drug-induced liver injury reported”, “drug-induced liver injury reported” and “no drug-induced liver injury reported”, respectively.

As to `Cc1cn[nH]c1` [FOMEPIZOLE], the figures for the Hepatotoxicity entry in the data set with Hepatotoxicity [1], in the data set on Hepatotoxicity [2] and in the data set on Hepatotoxicity [3] were “drug-induced liver injury reported”, “drug-induced liver injury reported” and “no drug-induced liver injury reported”, respectively.

For the molecule `C=O` [FORMALDEHYDE], the Hepatotoxicity entry in the data set on Hepatotoxicity [1] (Liver) was “drug-induced liver injury reported”; with Hepatotoxicity [2] (Liver), “drug-induced liver injury reported”; in the data set with Hepatotoxicity [3] (Liver), “no drug-induced liver injury reported”.

Consider `O=C([O-])P(=O)([O-])[O-].[Na+].[Na+].[Na+]` [FOSCARNET SODIUM], for which the results for the Hepatotoxicity entry with Hepatotoxicity [1], with Hepatotoxicity [2] and in the data set on Hepatotoxicity [3] were “no drug-induced liver injury reported”, “drug-induced liver injury reported” and “no drug-induced liver injury reported”, respectively.

For the molecule `C[C@@H]1O[C@@H]1P(=O)(O)O` [FOSFOMYCIN], the Hepatotoxicity result is listed as “drug-induced liver injury reported” with Hepatotoxicity [1], “no drug-induced liver injury reported” in the data set on Hepatotoxicity [2] and “no drug-induced liver injury reported” with Hepatotoxicity [3].

Regarding `CCC(=O)O[C@@H](O[P@](=O)(CCCCc1ccccc1)CC(=O)N1C[C@H](C2CCCCC2)C[C@H]1C(=O)O)C(C)C` [FOSINOPRIL], the Hepatotoxicity entry with Hepatotoxicity [1] is given as “drug-induced liver injury reported”; in the data set on Hepatotoxicity [2] it was “no drug-induced liver injury reported”; in the data set on Hepatotoxicity [3], “no drug-induced liver injury reported”.

`NC[C@@H]1O[C@H](O[C@H]2[C@@H](O)[C@H](O[C@@H]3[C@@H](O)[C@H](N)C[C@H](N)[C@H]3O[C@H]3O[C@H](CN)[C@@H](O)[C@H](O)[C@H]3N)O[C@@H]2CO)[C@H](N)[C@@H](O)[C@@H]1O` [FRAMYCETIN]: the figures for the Hepatotoxicity entry in the data set with Hepatotoxicity [1] (Liver), with Hepatotoxicity [2] (Liver) and in the data set with Hepatotoxicity [3] (Liver) were “no drug-induced liver injury reported”, “drug-induced liver injury reported” and “no drug-induced liver injury reported”, respectively.

Turning to `O=P(O)(O)OC[C@H]1O[C@@](O)(COP(=O)(O)O)[C@@H](O)[C@@H]1O` [FRUCTOSE 1,6-DIPHOSPHATE], the Hepatotoxicity result was “drug-induced liver injury reported” with Hepatotoxicity [1], “drug-induced liver injury reported” in the data set on Hepatotoxicity [2] and “no drug-induced liver injury reported” in the data set with Hepatotoxicity [3].

Turning to `O=C(CO)[C@@H](O)[C@H](O)[C@H](O)CO` [FRUCTOSE], the Hepatotoxicity result in the data set on Hepatotoxicity [1], in the data set with Hepatotoxicity [2] and in the data set with Hepatotoxicity [3] was “drug-induced liver injury reported” throughout.

For `c1ccoc1` [FURAN], the figures for the Hepatotoxicity entry with Hepatotoxicity [1], with Hepatotoxicity [2] and in the data set with Hepatotoxicity [3] were “no drug-induced liver injury reported”, “drug-induced liver injury reported” and “no drug-induced liver injury reported”, respectively.

As for `O=C1OCCN1/N=C/c1ccc([N+](=O)[O-])o1` [FURAZOLIDONE], the Hepatotoxicity entry in the data set with Hepatotoxicity [1] was “no drug-induced liver injury reported”; in the data set with Hepatotoxicity [2] it was “drug-induced liver injury reported”; with Hepatotoxicity [3], “no drug-induced liver injury reported”.

As to `CC(=O)O[C@H]1C[C@@]2(C)[C@@H](C[C@@H](O)[C@H]3[C@@]4(C)CC[C@@H](O)[C@@H](C)[C@@H]4CC[C@@]32C)/C1=C(\CCC=C(C)C)C(=O)O` [FUSIDIC ACID], the Hepatotoxicity result in the data set with Hepatotoxicity [1] is reported as “drug-induced liver injury reported”; in the data set with Hepatotoxicity [2], “no drug-induced liver injury reported”; in the data set on Hepatotoxicity [3], “no drug-induced liver injury reported”.

For the molecule `Nc1nc(O)c2ncn(COC(CO)CO)c2n1` [GANCICLOVIR], the Hepatotoxicity entry in the data set with Hepatotoxicity [1] is given as “drug-induced liver injury reported”; with Hepatotoxicity [2], “no drug-induced liver injury reported”; in the data set with Hepatotoxicity [3] it was “no drug-induced liver injury reported”.

Regarding `COc1c(N2CCNC(C)C2)c(F)cc2c(=O)c(C(=O)O)cn(C3CC3)c12` (centres undefined) [GATIFLOXACIN], the figures for the Hepatotoxicity result in the data set on Hepatotoxicity [1], in the data set on Hepatotoxicity [2] and with Hepatotoxicity [3] were “drug-induced liver injury reported”, “no drug-induced liver injury reported” and “no drug-induced liver injury reported”, respectively.

Regarding `COc1cc2ncnc(Nc3ccc(F)c(Cl)c3)c2cc1OCCCN1CCOCC1` [GEFITINIB], the Hepatotoxicity entry is given as “drug-induced liver injury reported” in the data set with Hepatotoxicity [1], “drug-induced liver injury reported” in the data set on Hepatotoxicity [2] and “no drug-induced liver injury reported” in the data set on Hepatotoxicity [3].

As for `COC1=C2C[C@@H](C)C[C@H](OC)[C@H](O)[C@@H](C)/C=C(\C)[C@H](OC(N)=O)[C@@H](OC)/C=C\C=C(/C)C(=O)NC(=CC1=O)C2=O` [GELDANAMYCIN], the Hepatotoxicity entry is reported as “drug-induced liver injury reported” in the data set on Hepatotoxicity [1], “no drug-induced liver injury reported” with Hepatotoxicity [2] and “no drug-induced liver injury reported” with Hepatotoxicity [3].
